pIC50: −log10 of the molar value. Converted amounts (≈) assume the structure as drawn. Read-outs that look alike come from different tables or passages of the source.
Experiments:
[1] = test system: human breast cancer cell line MCF7; assay: cells; assay type: cell-based; conditions: MCF7, 48 h, read-out: IC50 and 95% confidence limit, MCF7 cells
Description: (§1) Cell lines: Human pancreatic cancer cell line Panc-1, human colorectal cancer cell line HT29, human lung cancer cell line NCI-H460 and human breast cancer cell line MCF7; the medium: s DMEM (Gibco BRL), containing 10% fetal calf serum (Gibco BRL) and 2 mM L-glutamine (Gibco BRL).
(§2) Test samples: example compounds 7, 15, 82, 89, 116 and 135. The samples were dissolved in dimethyl sulfoxide (DMSO, Sigma, United States) and medium was added to the final concentration of 0.5%. Cyclophosphamide ware as positive control (Aldrich, United States, purity>96%).
(§3) General Method: cells were digested with trypsin and dispersed into single cells in the medium containing penicillin (25 U/ml) and streptomycin (25 μg/mL). The cells were seeded in 96-well culture plates (Corning Incorporated), at 37° C., with 5% CO2 present for 24 hours. The culture medium was removed, […] test compounds were added, cultured for 48 hours. Culture medium was removed and […] (MTT, USA Sigma products) was added. The result was assayed by SK601-based microplate reader (Japan Seikagaku company's products), 570 nm/630 nm optical density (OD). Cell viability determined by the formula: (Experimental group OD/control OD)×100%; CTX and the positive control subjects treated in the same material simultaneously.

[2] = test system: human lung cancer cell line NCI-H460; assay: cells; assay type: cell-based; conditions: Homo sapiens, NCI-H460, 48 h
Description: as §1, §2, §3

mice sarcoma S180 = assay: Growth inhibition of S180 sarcoma in mice; assay type: in vivo, Kunming healthy mice; conditions: for in-vivo anti-tumor efficacy, statistical significance (in words): S180 sarcoma in mice, doses and routes of Table 3
[3] = Mus musculus, S-180, mice, iv, read-out: Inhibition rate (%) S180 sarcoma
[4] = Mus musculus, S-180, mice, ip, read-out: Inhibition rate (%) S180 sarcoma

## O=P1(N(CCCl)CCCl)NCCCO1 (centres unmarked) [CTX, Cyclophosphamide, reference compound]
[1]
  IC50: 0.92 µg/mL (≈ 3.52 µM)
[2]; read-out: IC50 Lung cancer NCI-H460
  pIC50: 5.37
[2]; read-out: IC50 and 95% confidence limit, NCI-H460 cells
  IC50: 4.3 µg/mL
Mice sarcoma S180; [3]
  inhibition in vivo at 15 mg/kg: < 40%

## CCCc1nn(CO)c2c(=O)n(C3CSC(CO)O3)nnc12 (centres unmarked) [Example 94, 5-(hydroxymethyl)-3-(2-(hydroxymethyl)-1,3-oxathiolan-5-yl)-7-propyl-3H-pyrazolo[4,3-d][1,2,3]triazin-4(5H)-one]
Mice sarcoma S180; Mus musculus, S-180, mice, iv, 30 mg/kg, read-out: Inhibition rate (%) S180 sarcoma
  inhibition in vivo at 30 mg/kg: < 40%
Mice sarcoma S180
  in-vivo anti-tumor efficacy, statistical significance (in words): statistically significant

## CCCc1nn(CC(N)=O)c2c(=O)n(C3CSC(CO)O3)nnc12 (centres unmarked) [Example 95, 2-(3-(2-(hydroxymethyl)-1,3-oxathiolan-5-yl)-4-oxo-7-propyl-3H-pyrazolo[4,3-d][1,2,3]triazin-5(4H)-yl)acetamide]
Mice sarcoma S180; [3]
  inhibition in vivo at 50 mg/kg: < 40%
Mice sarcoma S180
  in-vivo anti-tumor efficacy, statistical significance (in words): statistically significant

## CCCc1nn(C(N)=O)c2c(=O)n(C3CSC(CO)O3)nnc12 (centres unmarked) [Example 97, 3-(2-(hydroxymethyl)-1,3-oxathiolan-5-yl)-4-oxo-7-propyl-3H-pyrazolo[4,3-d][1,2,3]triazine-5(4H)-carboxamide]
Mice sarcoma S180; [4]
  inhibition in vivo at 100 mg/kg: < 40%
Mice sarcoma S180
  in-vivo anti-tumor efficacy, statistical significance (in words): statistically significant

## NC(=O)n1nc(N)c2nnn(C3CSC(CO)O3)c(=O)c21 (centres unmarked) [Example 98, 7-amino-3-(2-(hydroxymethyl)-1,3-oxathiolan-5-yl)-4-oxo-3H-pyrazolo[4,3-d][1,2,3]triazine-5(4H)-carboxamide]
Mice sarcoma S180; Mus musculus, S-180, mice, ip, 70 mg/kg, read-out: Inhibition rate (%) S180 sarcoma
  inhibition in vivo at 70 mg/kg: < 20%

## CN(C)CCC(=O)Nc1nn(C(N)=O)c2c(=O)n(C3CSC(CO)O3)nnc12 (centres unmarked) [Example 99, 7-(3-(dimethylamino)propanamido)-3-(2-(hydroxymethyl)-1,3-oxathiolan-5-yl)-4-oxo-3H-pyrazolo[4,3-d][1,2,3]triazine-5(4H)-carboxamide]
Mice sarcoma S180; Mus musculus, S-180, mice, ip, 150 mg/kg, read-out: Inhibition rate (%) S180 sarcoma
  inhibition in vivo at 150 mg/kg: < 20%

## CCCc1nn(C(=N)N)c2c(=O)n(C3CSC(CO)O3)nnc12 (centres unmarked) [Example 100, 3-(2-(hydroxymethyl)-1,3-oxathiolan-5-yl)-4-oxo-7-propyl-3H-pyrazolo[4,3-d][1,2,3]triazine-5(4H)-carboximidamide]
Mice sarcoma S180; [4]
  inhibition in vivo at 100 mg/kg: < 40%
Mice sarcoma S180
  in-vivo anti-tumor efficacy, statistical significance (in words): statistically significant

## CCCc1nn(O)c2c(=O)n(C3OC(COC(C(=O)O)P(=O)(NC(C)C)NC(C)C)C(O)C3O)nnc12 (centres unmarked) [Example 103, 2-(bis(isopropylamino)phosphoryl)-2-((3,4-dihydroxy-5-(5-hydroxy-4-oxo-7-propyl-4,5-dihydro-3H-pyrazolo[4,3-d][1,2,3]triazin-3-yl)tetrahydrofuran-2-yl)methoxy)acetic acid]
Mice sarcoma S180; [4]
  inhibition in vivo at 100 mg/kg: < 20%

## CCCc1nn(C)c2c(=O)n(C3OC(COC(C(=O)O)P(=O)(NC(C)C)NC(C)C)C(O)C3O)nnc12 (centres unmarked) [Example 106, 2-(bis(isopropylamino)phosphoryl)-2-((3,4-dihydroxy-5-(5-methyl-4-oxo-7-propyl-4,5-dihydro-3H-pyrazolo [4,3-d][1,2,3]triazin-3-yl)tetrahydrofuran-2-yl)methoxy)acetic acid]
Mice sarcoma S180; [3]
  inhibition in vivo at 50 mg/kg: < 20%

## CCCc1nn(O)c2c(=O)n(C3OC(COC(C(=O)O)P(NC(C)C)OCC#N)C(O)C3O)nnc12 (centres unmarked) [Example 117, 2-((cyanomethoxy)(isopropylamino)phosphino)-2-((3,4-dihydroxy-5-(5-hydroxy-4-oxo-7-propyl-4,5-dihydro-3H-pyrazolo [4,3-d][1,2,3]triazin-3-yl)tetrahydrofuran-2-yl)methoxy)acetic acid]
Mice sarcoma S180; [3]
  inhibition in vivo at 15 mg/kg: < 40%
Mice sarcoma S180
  in-vivo anti-tumor efficacy, statistical significance (in words): statistically significant

## CCCc1nn(C)c2c(=O)n(C3OC(COC(C(=O)O)P(NC(C)C)OCC#N)C(O)C3O)nnc12 (centres unmarked) [Example 120, 2-((cyanomethoxy)(isopropylamino)phosphino)-2-((3,4-dihydroxy-5-(5-methyl-4-oxo-7-propyl-4,5-dihydro-3H-pyrazolo[4,3-d][1,2,3]triazin-3-yl)tetrahydrofuran-2-yl)methoxy)acetic acid]
Mice sarcoma S180; Mus musculus, S-180, mice, iv, 12.5 mg/kg, read-out: Inhibition rate (%) S180 sarcoma
  inhibition in vivo at 12.5 mg/kg: < 40%
Mice sarcoma S180
  in-vivo anti-tumor efficacy, statistical significance (in words): statistically significant

## CCCc1nn(C)c2c(=O)n(COC(CO)CO)nnc12 [Example 126, 3-(((1,3-dihydroxypropan-2-yl)oxy)methyl)-5-methyl-7-propyl-3H-pyrazolo[4,3-d][1,2,3]triazin-4(5H)-one]
Mice sarcoma S180; [3]
  inhibition in vivo at 50 mg/kg: < 20%

## CN(C)CCC(=O)Nc1nn(CC(N)=O)c2c(=O)n(COC(CO)CO)nnc12 [Example 129, N-(5-(2-amino-2-oxoethyl)-3-(((1,3-dihydroxypropan-2-yl)oxy)methyl)-4-oxo-4,5-dihydro-3H-pyrazolo[4,3-d][1,2,3]triazin-7-yl)-3-(dimethylamino) propanamide]
Mice sarcoma S180; [4]
  inhibition in vivo at 100 mg/kg: < 20%

## CCCc1nn(C(=N)N)c2c(=O)n(C3OC(COP(=O)(O)OP(=O)(O)OP(=O)(O)O)C(O)C3O)nnc12 (centres unmarked) [Example 140, (5-(5-carbamimidoyl-4-oxo-7-propyl-4,5-dihydro-3H-pyrazolo[4,3-d][1,2,3]triazin-3-yl)-3,4-dihydroxytetrahydrofuran-2-yl)methyl tetrahydrogen triphosphate]
Mice sarcoma S180; [4]
  inhibition in vivo at 200 mg/kg: < 20%

## CCCn1nnc2nnn(C3OC(CO)C(O)C3O)c(=O)c21 (centres unmarked) [Example 147, 6-(3,4-dihydroxy-5-(hydroxymethyl)tetrahydrofuran-2-yl)-1-propyl-1H-[1,2,3]triazolo[4,5-d][1,2,3]triazin-7(6H)-one]
Mice sarcoma S180; Mus musculus, S-180, mice, ip, 300 mg/kg, read-out: Inhibition rate (%) S180 sarcoma
  inhibition in vivo at 300 mg/kg: < 20%

## O=c1c2c(nnn1C1OC(CO)C(O)C1O)nnn2CO (centres unmarked) [Example 148, 6-(3,4-dihydroxy-5-(hydroxymethyl)tetrahydrofuran-2-yl)-1-(hydroxymethyl)-1H-[1,2,3]triazolo[4,5-d][1,2,3]triazin-7(6H)-one]
Mice sarcoma S180; [4]
  inhibition in vivo at 200 mg/kg: < 20%

## CCCn1nnc2c(=O)n(C3OC(CO)C(O)C3O)nnc21 (centres unmarked) [Example 151, 6-(3,4-dihydroxy-5-(hydroxymethyl)tetrahydrofuran-2-yl)-3-propyl-3H-[1,2,3]triazolo[4,5-d][1,2,3]triazin-7(6H)-one]
Mice sarcoma S180; [4]
  inhibition in vivo at 200 mg/kg: < 20%

## O=c1c2nnn(CO)c2nnn1C1OC(CO)C(O)C1O (centres unmarked) [Example 152, 6-(3,4-dihydroxy-5-(hydroxymethyl)tetrahydrofuran-2-yl)-3-(hydroxymethyl)-3H-[1,2,3]triazolo[4,5-d][1,2,3]triazin-7(6H)-one]
Mice sarcoma S180; Mus musculus, S-180, mice, ip, 400 mg/kg, read-out: Inhibition rate (%) S180 sarcoma
  inhibition in vivo at 400 mg/kg: < 20%

## CCCn1nnc2c(=O)n(C3CCC(COC(C(=O)O)P(=O)(NC(C)C)NC(C)C)O3)nnc21 (centres unmarked) [Example 154, 2-(bis(isopropylamino)phosphoryl)-2-((5-(7-oxo-3-propyl-3H-[1,2,3]triazolo[4,5-d][1,2,3]triazin-6(7H)-yl)tetrahydrofuran-2-yl)methoxy)acetic acid]
Mice sarcoma S180; [4]
  inhibition in vivo at 100 mg/kg: < 20%

## CC(=O)O[C@H]1C(=O)[C@@]2(C)[C@H]([C@H](OC(=O)c3ccccc3)[C@]3(O)C[C@H](OC(=O)[C@H](O)[C@@H](NC(=O)c4ccccc4)c4ccccc4)C(C)=C1C3(C)C)[C@]1(OC(C)=O)CO[C@@H]1C[C@@H]2O [Taxol, Paclitaxel, reference compound]
Mice sarcoma S180; Mus musculus, S-180, mice, ip, 20 mg/kg, read-out: Inhibition rate (%) S180 sarcoma
  inhibition in vivo at 20 mg/kg: < 40%

Reference: patent US20210292347A1, “DIHETEROCYCLIC TRIAZINONE NUCLEOSIDE ANALOGS AND THEIR USE FOR MEDICATION” (priority 2020, published 2021)
